Test results reported in article PMC6009871, “Anion inhibition studies of a beta carbonic anhydrase from the malaria mosquito Anopheles gambiae” (Journal of Enzyme Inhibition and Medicinal Chemistry, 2018).
Like-named read-outs stand apart in the source and are kept apart here.

Target: T1, AgaCA (Anopheles gambiae, UniProt Q5TU56)
T1 construct: gene 1272966; full-length beta-CA, C-terminal thrombin site and His6 tag (tag removed by thrombin), baculovirus/Sf9
T1 sequence (Q5TU56 1-255): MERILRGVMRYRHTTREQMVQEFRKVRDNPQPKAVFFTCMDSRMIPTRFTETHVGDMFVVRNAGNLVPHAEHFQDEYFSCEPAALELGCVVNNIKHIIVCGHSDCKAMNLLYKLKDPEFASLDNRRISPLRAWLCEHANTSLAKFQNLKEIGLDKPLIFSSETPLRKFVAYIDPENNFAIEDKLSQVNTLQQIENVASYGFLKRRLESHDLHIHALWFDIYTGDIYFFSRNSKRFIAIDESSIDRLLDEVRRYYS
Test: biochemical

Row | SMILES | Ki (read-out: AgaCA^c) [mM] | also measured
1 | [O]=[Sn]([OH])[OH] [SnO3^2−] | 1.8 | –
2 | S=C(S)S [CS3^2−] | 8.19 | –
3 | S [HS^−] | 25.1 | –
4 | O=[Se](=O)(O)O [SeO4^2−] | 9.41 | –
5 | O=P(O)(O)OP(=O)(O)O [P2O7^4−] | – | Ki: 8.52 mM
6 | O=S(=O)(O)O [SO4^2−] | – | Ki: 9.03 mM
7 | N#C[SeH] [SeCN^−] | 8.68 | –
8 | N#CO [CNO^−] | 9.46 | –
9 | Cl [Cl^−] | 8.74 | –
10 | O=NO [NO2^−] | 4.55 | –
11 | NS(=O)(=O)O [H2NSO3H] | – | Ki (read-out: KI [mM]^e / hCA I^a): 0.021 mM
12 | NS(N)(=O)=O [H2NSO2NH2] | 0.054 | –
13 | F [F^−] | 9.42 | –
14 | [O]=[V]([OH])([OH])[O][V](=[O])([OH])[OH] [V2O7^4−] | 7.98 | –
15 | O=[Te](=O)(O)O [TeO4^2−] | 4.96 | –
16 | OB(O)c1ccccc1 [Ph-B(OH)2] | 0.047 | –
17 | N#CS [SCN^−] | – | Ki: 6.41 mM
18 | O=[N+]([O-])O [NO3^−] | 6.5 | –
19 | CCN(CC)C(=S)S [Et2NCS2^−] | 0.65 | –
